{"source": "patent US10265372B2", "about": "“Molecular composition for enhancing and rejuvenating maintenance and repair of mammalian tissues” (The Regents of the University of California, priority 2014, dated 2019)", "key": {"muscle regeneration [1]": {"system": "muscle regeneration", "assay": "Systemic oxytocin or oxytocin antagonist and muscle regeneration in mice", "assay_type": "in vivo, mouse", "conditions": "OT alone", "excerpt": "OXTR agonists may be used to treat and prevent sarcopenia, improve muscle regeneration after injury and prevent muscle mass loss observed after long term immobilization (bed rest or cast), as well as low gravity (space travel). Specifically, oxytocin is more desirable than other drugs on the market or under development, since it is physiologic, has virtually no side effects and is already FDA approved to induce labor in pregnant women and in clinical trials to treat children with autism. The plasmatic level of oxytocin decreases with age in mice. […] Confirming the dependence of muscle maintenance and repair on oxytocin, mice with a knock out in oxytocin have defective muscle regeneration and premature sarcopenia (loss of muscle tissue). Oxytocin is also known to prevent osteoporosis and regulate fat distribution after menopause. Oxytocin inhibits p16 (marker and effector of senescence) in adult stem cells, thereby enabling their productive responses to maintain and repair tissues."}, "[2]": {"system": "muscle stem cells (satellite cells)", "conditions": "cited from earlier work"}, "muscle regeneration [3]": {"system": "muscle regeneration", "conditions": "Elabd et al. 2014, cited from earlier work"}, "[4]": {"system": "muscle stem cells (satellite cells)", "assay": "Effects of OT and OTA on muscle stem (satellite) cells", "assay_type": "cell-based, mouse"}, "[5]": {"system": "TA muscle regeneration after CTX injury", "assay": "In vivo epistasis between TGFβ1 and oxytocin: TA muscle regeneration after CTX injury (FIG. 4A-4B)", "design": "species or system mouse", "conditions": "young (3 mo) mice, CTX-injured TA, 5 days after injury; for Muscle regeneration after injury, effect of ectopic TGFβ1 alone (histology): recombinant TGFβ1 20 ng/muscle", "description": "Further support for the advantages of the combined administration of OT and Alk5i comes from the observation of epistasis between the TGF-beta1 and oxytocin.\nFIGS. 4A and 4B show the in vivo epistasis between TGFβ1 and Oxytocin. Young (3 mo) mouse TA muscles were injured with CTX with or without recombinant TGFβ1 (20 ng/muscle), and mice were administered 1 μg/g OT or vehicle (HBSS) by subcutaneous delivery into circulation. TGFβ1 or vehicle and OT were administered again the following day. Mice were sacrificed 5 days after injury and muscle sectioned for histological examination (with Hematoxilin and Eosin staining) in 10 um cryosections. All samples were processed and analyzed in a blinded study. […] FIG. 4B depicts the regenerative index of the three different conditions. The regenerative index was quantified by expressing the number of newly formed fibers over total nuclei in the injury/regeneration sites; *p<0.01."}, "[6]": {"system": "rat neural precursor cells", "assay": "Neural precursor cell proliferation in basal medium, BrdU pulse (FIG. 3C)", "assay_type": "cell-based", "conditions": "rat neural precursor cells in basal medium (DMEM/F12/N2)", "excerpt": "(§1) FIGS. 3A-3C depict dose-curve matrices of OT, Alk5i and OT+Alk5i effects on myogenic and neurogenic cell proliferation. FIGS. 3A-3C show the effect of the indicated concentrations of OT (in nM) and Alk5-inhibitor (a5i, μM) on primary myoblasts in Opti-MEM (FIG. 3A); on old satellite cells isolated from 3 DPI muscle in Opti-MEM with 5% old mouse serum (FIG. 3B); and on rat neural precursor cells in basal medium (DMEM/F12/N2) (FIG. 3C). Cells were pulsed with BrdU, and BrdU immunodetection and Hoechst staining were performed. Percent proliferating cells (myogenic and neurogenic) were quantified (manually, by ImageJ and by Molecular Devices ImageXpress Micro automated epifluorescence imager, with automated cell quantification by MetaXpress). Shown is the percent proliferation visualized as a topographic map.\nIsolation and Culture of Neural Progenitor Cells: Primary rat neural progenitor cells (NPCs) isolated from the hippocampi of Fisher 344 rats (Charles River) will be maintained in DMEM/F12 (Life Technologies) containing N2 supplement (Life Technologies) and 10 ng/mL FGF-2 (PeproTech) on laminin (Roche) and polyornithine (Sigma) coated tissue culture plates. […]"}, "primary myoblasts": {"system": "primary myoblasts", "assay": "Primary myoblast proliferation, BrdU pulse, OT/Alk5i dose matrix (FIG. 3A)", "assay_type": "cell-based, mouse", "conditions": "primary myoblasts in Opti-MEM (low mitogen), OT in nM, Alk5i in μM", "excerpt": "as §1\nIsolation of Muscle Stem Cells and Primary Myoblasts: Tibialis Anterior (TA) and Gastrocneimus (Gastroc) muscles will undergo enzymatic digestion with collagenase type II. Fat pads and tendons will be removed and rounds of muscle trituration and sedimentation will purify myofibers with associated muscle stem (satellite) cells. Myofibers will be incubated with collagenase type II and dispase; suspensions will be vortexed to release satellite cells from digested fibers, passed through a cell strainer and pre-plated on uncoated dishes for 20 minutes at 37° C., 5% CO2. […]"}}, "note": "“Also recorded” adds a separate entry of the source."}
{"compound": "CC[C@H](C)[C@@H]1NC(=O)[C@H](Cc2ccc(O)cc2)NC(=O)[C@@H](N)CSSC[C@@H](C(=O)N2CCC[C@H]2C(=O)N[C@@H](CC(C)C)C(=O)NCC(N)=O)NC(=O)[C@H](CC(N)=O)NC(=O)[C@H](CCC(N)=O)NC1=O", "note": "[OT, oxytocin]", "values": [{"measurement": "Muscle maintenance and repair in old mice", "setting": "muscle regeneration [1]", "result": "significantly enhances muscle maintenance and repair"}, {"measurement": "p16 (marker and effector of senescence) in adult stem cells", "setting": "[2]", "result": "inhibits p16"}, {"measurement": "Muscle regeneration in old mice", "setting": "muscle regeneration [3]; old mice, short term subcutaneous injection (systemic delivery)", "result": "able to restore muscle regeneration"}, {"measurement": "pERK in muscle stem cells", "setting": "[4]; muscle stem cells", "result": "activates pERK"}, {"measurement": "CDKIs in satellite cells", "setting": "[4]; old satellite cells", "result": "attenuates CDKIs"}, {"measurement": "Proliferation and myogenicity of old satellite cells", "setting": "[4]; old satellite cells", "result": "enhances proliferation and myogenicity"}, {"measurement": "OtKO satellite cell decline", "setting": "[4]; satellite cells of oxytocin knock out (OtKO) mice", "result": "rescues the OtKO satellite cell decline"}, {"measurement": "Muscle regeneration after injury in mice given ectopic TGFβ1 (histology)", "setting": "[5]; TGFβ1 20 ng/muscle, OT 1 μg/g subcutaneous", "result": "rescued muscle regeneration; also recorded: rescues the regeneration of young muscle injected with TGFβ1"}]}
{"compound": "COc1cc(OC2CCN(C(C)=O)CC2)ccc1C(=O)N1CCC(N2C(=O)OCc3ccccc32)CC1", "note": "[OTA]", "values": [{"measurement": "Muscle regeneration potential in young mice", "setting": "muscle regeneration [3]; young mice, injection of oxytocin antagonist", "result": "prematurely ages their muscle regeneration potential"}, {"measurement": "Myogenicity of young satellite cells", "setting": "[4]; young satellite cells", "result": "inhibits myogenicity"}]}
{"compound": "Cc1cccc(-c2n[nH]cc2-c2ccc3ncccc3n2)n1", "note": "[Alk5i, 2-(3-(6-Methylpyridin-2-yl)-1H-pyrazol-4-yl)-1,5-naphthyridine]", "values": [{"measurement": "Percent proliferating cells (BrdU), NPC proliferation", "setting": "[6]", "result": "diminishes proliferation of NPCs"}, {"measurement": "Expression of CDKIs", "setting": "aged mice; aged mice", "result": "attenuates the expression of CDKIs"}, {"measurement": "Myogenesis and neurogenesis", "setting": "aged mice; aged/old mice, systemic Alk5i alone, listed as ALK5 inhibitor", "result": "simultaneously rejuvenates myogenesis and neurogenesis"}, {"measurement": "Inflammation", "setting": "aged mice; delivered systemically into 2-year old mice", "result": "reduces inflammation"}, {"measurement": "pSmads in Sox-2+ cells of SGZ", "setting": "aged mice; systemically administered", "result": "down-modulating pSmads"}, {"measurement": "Percent proliferating cells (BrdU), myoblast proliferation", "setting": "primary myoblasts", "result": "bi-phasic effect on myoblast proliferation"}]}
{"compound": "TGFβ1: recombinant TGFβ1, given ectopically into injured muscle (R&D systems)", "values": [{"measurement": "Muscle regeneration after injury, effect of ectopic TGFβ1 alone (histology)", "setting": "[5]", "result": "promotes scarring"}, {"measurement": "Muscle regeneration after injury, effect of ectopic TGFβ1 alone (histology)", "setting": "[5]; listed as TGF-beta 1", "result": "inhibited muscle regeneration"}]}
